These results are taken from patent US8901118B2, “Compounds and methods for kinase modulation, and indications therefor” (Plexxikon Inc., priority 2010, dated 2014).

The structures appear in SMILES notation.

The target in one experiment is T1, BCR-NTRK3 BaF3 cells (Homo sapiens, UniProt Q16288).
T1 construct: fused on or other part: P11274 (Breakpoint cluster region protein)
Nature of the experiment: BaF3 BCR-NTRK3 cell proliferation assay (ATPlite). The class given is cell-based. The note with it: read-out: Inhibition of Cell Proliferation IC50, BCR/BaF3 TrkC. The protocol:
(§1) Compounds are assessed in a variety of cell based assays. For example BaF3 cells engineered with any of BCR-FMS, BCR-KIT, BCR-FLT3, BCR-NTRK1, BCR-NTRK2, and BCR-NTRK3, are used in cell proliferation assays to assess inhibitory activity of Fms, Kit, Flt-3, TrkA, TrkB, and TrkC, respectively. An MV-4-11 (leukemia) cell proliferation assay is used to assess inhibitory activity in Flt-3, and SKNSH (human neuroblastoma) cell proliferation assay is used to assess efficacy of Fms/Trk inhibitors. Additional cells may be assayed similarly to assess the efficacy of Fms/Trk inhibitors, such as MiaPaCa (human pancreatic cancer) and Capan-1 (human pancreatic carcinoma) cells. Reagent and assay conditions are as follows: • BaF3 cells: • Maintained in RPMI containing 10% FBS, 1% PenStrep, 1% NEAA, and 1% L-Glutamine, supplemented with 1 mg/mL G418 and 5% WEHI-CM (or recombinant murine IL-3). • Confluent cells are split 1:50 to 1:100 every 3-4 days. • MV-4-11 cells: • Maintained in Iscove's Modified Dulbecco's Medium containing 10% FBS. • Confluent cells are split 1:4 every 3-4 days. • SKNSH cells: RPMI containing 10% FBS. On day 1, cells are counted, then centrifuged in a conical tube for 5 minutes at 1000 rpm. The supernatant is removed and cells are re-suspended as follows: • BaF3: resuspend in growth media +1 mg/mL G418 (without WEHFIL-3) to 2×10^5 cells/mL. • MV-4-11: resuspend in growth media to 5×10^5 cells/mL. • SKNSH: resuspend in growth media to 2×10^4 cells/mL. The cells are plated (50 μL, 150 μL for SKNSH cells) in each well of a 96-well dish (Corning 3610) and incubated at 37° C. in 5% CO2 overnight, cells plated to a final concentration of cells as follows: • BaF3: 10,000 cells per well. • MV-4-11: 25,000 cells per well. • SKNSH: 3,000 cells per well. On day 2, compound at a maximum concentration of 5 mM is serially diluted 1:3 for a total of 8 point titration with DMSO as a control. A 1 μL aliquot of each dilution point is added to 249 μL growth media and 50 μL is added to a well containing cells, providing 10 μM compound for the maximum concentration point. The cells are incubated for 3 days at 37° C. in 5% CO2. For SKNSH cells, a 0.75 μL aliquot of appropriate dilution in DMSO is added to 150 μL of cells. On day 5, ATPlite 1 step Luminescence Assay System (Perkin Elmer #6016739) is brought to room temperature along with the cell cultures. ATPlite is added to each well as follows: • BaF3: 25 μL per well. • MV-4-11: 40 μL per well. • SKNSH: 20 μL per well. The cells are incubated at room temperature for 10 minutes, then luminescence is read on Safire reader. The measured luminescence correlates directly with cell number, such that the reading as a function of compound concentration is used to determine the IC50 value.
(§2) It is understood that the results of these assays may vary as assay conditions are varied. Inhibition levels determined under the conditions described herein represent a relative activity for the compounds tested under the specific conditions employed. The cell based assays are likely to show variability due to the complexity of the system and the sensitivity thereof to any changes in the assay conditions. […] Results for compounds that are tested and show substantially no inhibition below the highest tested concentration are represented as “-” in the tables below. In some instances, the compounds were not tested in all of the assays, or assay results were not valid, as indicated by NA in the tables below.
A general note: In ATP-based viability assays light output follows the ATP content of the culture.

The target of the next experiment is Fms kinase (Homo sapiens, UniProt P07333). Briefly: Fms kinase biochemical activity assay (AlphaScreen, biotin-(E4Y)10 phosphorylation). Conditions: 100 μM ATP; read-out: Biochemical Inhibition IC50 Fms. The protocol: In one assay the biochemical activity IC50 values are determined with respect to inhibition of Fms kinase activity, where inhibition of phosphorylation of a peptide substrate is measured as a function of compound concentration. Compounds to be tested, dissolved in DMSO (1 μL), are added to a white 384-well plate (Costar #3705). Working stocks of Fms kinase (Invitrogen #PV3249), biotin-(E4Y)10 substrate (Upstate Biotech, Cat#12-440), and ATP (Sigma, Cat#A-3377) are prepared in 25 mM Hepes pH 7.5, 0.5 mM MgCl2, 2 mM MnCl2, 2 mM DTT, 0.01% BSA, and 0.01% Tween-20. All components are added to the 384-well plate for a final concentration of 1 ng/well Fms, 30 nM biotin-(E4Y)10 (Upstate Biotechnology) and 100 μM ATP in a volume of 20 μL. Each sample is at 5% DMSO. The plate is then incubated for 20 minutes at 30° C. Just before use, working stocks of donor and acceptor beads from the AlphaScreen PY20 Detection Kit (PerkinElmer, Cat#676601M) are prepared in 25 mM Hepes pH 7.5, pH 7.4, 100 mM EDTA, 0.01% BSA. To stop the reaction, the plate is uncovered in the dark and 5 μL of Donor Beads solution (Streptavidin beads) is added to each well. The plate is incubated at room temperature for 20 minutes. Five microliters of Acceptor Beads solution (PY20 coated beads) are then added to each well. The final concentration of each bead is 10 μg/mL. The plates are incubated at room temperature for 60 minutes. Fluorescence signal is recorded on the Envision reader. Phosphorylated substrate results in binding of the PY20 antibody and association of the donor and acceptor beads such that signal correlates with kinase activity. The signal vs. compound concentration is used to determine the IC50.
Chain of Fms kinase (P07333 20-972): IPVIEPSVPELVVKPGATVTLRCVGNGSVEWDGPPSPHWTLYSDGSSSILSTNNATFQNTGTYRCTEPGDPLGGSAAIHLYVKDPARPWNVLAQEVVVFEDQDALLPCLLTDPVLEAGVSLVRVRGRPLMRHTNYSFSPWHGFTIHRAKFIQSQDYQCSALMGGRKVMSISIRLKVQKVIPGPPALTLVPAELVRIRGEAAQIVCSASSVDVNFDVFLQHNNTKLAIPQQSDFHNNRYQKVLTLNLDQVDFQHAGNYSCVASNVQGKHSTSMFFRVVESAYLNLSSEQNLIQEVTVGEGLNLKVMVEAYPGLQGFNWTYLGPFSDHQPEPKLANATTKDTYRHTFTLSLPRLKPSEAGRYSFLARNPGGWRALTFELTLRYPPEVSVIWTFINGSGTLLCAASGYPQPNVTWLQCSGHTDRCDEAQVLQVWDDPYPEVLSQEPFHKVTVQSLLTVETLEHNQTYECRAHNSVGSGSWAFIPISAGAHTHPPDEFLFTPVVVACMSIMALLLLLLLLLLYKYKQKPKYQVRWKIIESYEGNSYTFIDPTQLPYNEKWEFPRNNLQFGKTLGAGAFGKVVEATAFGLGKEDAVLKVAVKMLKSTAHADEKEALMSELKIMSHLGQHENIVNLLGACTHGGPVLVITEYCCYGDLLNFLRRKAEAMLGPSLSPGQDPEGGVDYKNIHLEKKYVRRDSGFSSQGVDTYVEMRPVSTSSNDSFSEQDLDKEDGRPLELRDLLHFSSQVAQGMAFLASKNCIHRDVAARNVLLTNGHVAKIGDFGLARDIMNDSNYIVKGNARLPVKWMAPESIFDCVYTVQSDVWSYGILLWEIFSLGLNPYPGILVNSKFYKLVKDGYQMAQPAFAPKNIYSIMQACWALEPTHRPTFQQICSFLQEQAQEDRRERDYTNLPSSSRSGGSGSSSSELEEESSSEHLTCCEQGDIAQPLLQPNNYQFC

The target of another experiment is T2, BCR-FMS BaF3 cells (Homo sapiens, UniProt P07333).
T2 construct: fused on or other part: P11274 (Breakpoint cluster region protein)
T2 sequence (P07333 582-910): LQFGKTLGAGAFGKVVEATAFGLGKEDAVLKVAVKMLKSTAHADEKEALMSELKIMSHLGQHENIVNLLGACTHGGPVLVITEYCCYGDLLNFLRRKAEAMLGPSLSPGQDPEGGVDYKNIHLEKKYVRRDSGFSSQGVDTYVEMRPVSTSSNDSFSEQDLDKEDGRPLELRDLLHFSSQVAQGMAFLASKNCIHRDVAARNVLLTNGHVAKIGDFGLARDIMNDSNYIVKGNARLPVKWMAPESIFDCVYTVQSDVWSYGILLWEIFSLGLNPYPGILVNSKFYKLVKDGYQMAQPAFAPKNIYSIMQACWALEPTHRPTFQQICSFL
Briefly: BaF3 BCR-FMS cell proliferation assay (ATPlite). Type of experiment: cell-based. The note with it: read-out: Inhibition of Cell Proliferation IC50, BCR/BaF3 Fms. The protocol:
as §1, §2

T1 sequence (Q16288 whole entry, the tested form may be a part): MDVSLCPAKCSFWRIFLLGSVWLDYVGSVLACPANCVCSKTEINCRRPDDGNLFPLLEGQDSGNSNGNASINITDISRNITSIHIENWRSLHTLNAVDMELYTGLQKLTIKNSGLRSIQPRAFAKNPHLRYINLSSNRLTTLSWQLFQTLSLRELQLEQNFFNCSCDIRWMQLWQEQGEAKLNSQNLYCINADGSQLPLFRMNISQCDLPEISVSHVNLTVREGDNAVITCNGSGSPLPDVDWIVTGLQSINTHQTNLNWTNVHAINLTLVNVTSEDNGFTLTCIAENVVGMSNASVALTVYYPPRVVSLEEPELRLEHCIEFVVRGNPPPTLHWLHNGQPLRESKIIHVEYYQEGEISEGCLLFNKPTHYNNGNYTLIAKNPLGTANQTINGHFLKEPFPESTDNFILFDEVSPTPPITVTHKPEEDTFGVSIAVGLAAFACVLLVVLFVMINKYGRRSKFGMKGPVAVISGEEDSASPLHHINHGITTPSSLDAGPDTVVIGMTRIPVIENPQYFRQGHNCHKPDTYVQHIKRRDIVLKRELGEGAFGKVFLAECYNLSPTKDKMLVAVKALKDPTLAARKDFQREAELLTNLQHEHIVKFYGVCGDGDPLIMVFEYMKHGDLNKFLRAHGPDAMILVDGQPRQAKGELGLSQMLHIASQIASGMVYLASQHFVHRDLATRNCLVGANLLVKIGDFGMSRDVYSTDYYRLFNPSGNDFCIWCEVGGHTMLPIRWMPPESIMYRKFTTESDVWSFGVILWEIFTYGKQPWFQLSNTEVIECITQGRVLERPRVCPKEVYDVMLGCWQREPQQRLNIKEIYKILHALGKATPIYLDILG

As for `Fc1nc(NC2CCC(F)(F)CC2)ccc1Cc1c[nH]c2ncc(Cl)cc12` [Compound P-3013, [5-(5-Chloro-1H-pyrrolo[2,3-b]pyridin-3-ylmethyl)-6-fluoro-pyridin-2-yl]-(4,4-difluoro-cyclohexyl)-amine], the IC50 at BCR-NTRK3 BaF3 cells was greater than 10000 nM; on Fms kinase it was less than 10 nM; on BCR-FMS BaF3 cells, less than 100 nM.

Take `Fc1ccccc1Nc1ncc(Cc2c[nH]c3ncc(Cl)cc23)cn1` [Compound P-3014, [5-(5-Chloro-1H-pyrrolo[2,3-b]pyridin-3-ylmethyl)-pyrimidin-2-yl]-(2-fluoro-phenyl)-amine]: the IC50 at BCR-NTRK3 BaF3 cells is greater than 10000 nM; at Fms kinase, less than 10 nM; on BCR-FMS BaF3 cells, less than 100 nM.

On to `Clc1cnc2[nH]cc(Cc3cnc(Nc4ccccc4Cl)nc3)c2c1` [Compound P-3015, (2-Chloro-phenyl)-[5-(5-chloro-1H-pyrrolo[2,3-b]pyridin-3-ylmethyl)-pyrimidin-2-yl]-amine], for which the IC50 was greater than 10000 nM at BCR-NTRK3 BaF3 cells, less than 10 nM at Fms kinase and less than 1000 nM at BCR-FMS BaF3 cells.

For the compound `COc1ccc(Nc2ccc(C(=O)c3c[nH]c4ncnc(NC(C)(C)C)c34)c(F)n2)cn1` [Compound P-4055, [4-(tert-butylamino)-7H-pyrrolo[2,3-d]pyrimidin-5-yl]-[2-fluoro-6-[(6-methoxy-3-pyridyl)amino]-3-pyridyl]methanone], the figures for the IC50 at BCR-NTRK3 BaF3 cells, at Fms kinase and at BCR-FMS BaF3 cells were less than 10 nM, less than 100 nM and less than 1000 nM, respectively.

With `COc1ccc(Nc2ccc(C(=O)c3c[nH]c4ncnc(NC5CCC(F)(F)CC5)c34)c(F)n2)cn1` [Compound P-4056, [4-[(4,4-difluorocyclohexyl)amino]-7H-pyrrolo[2,3-d]pyrimidin-5-yl]-[2-fluoro-6-[(6-methoxy-3-pyridyl)amino]-3-pyridyl]methanone], the IC50 was less than 10 nM at BCR-NTRK3 BaF3 cells, less than 100 nM on Fms kinase and less than 1000 nM at BCR-FMS BaF3 cells.

With `O=C(c1ccc(NC2CCC(F)(F)CC2)nc1Cl)c1c[nH]c2ncnc(NCC(F)(F)F)c12` [Compound P-4057, [2-chloro-6-[(4,4-difluorocyclohexyl)amino]-3-pyridyl]-[4-(2,2,2-trifluoroethylamino)-7H-pyrrolo[2,3-d]pyrimidin-5-yl]methanone], the IC50 is less than 1000 nM at BCR-NTRK3 BaF3 cells, less than 100 nM at Fms kinase and less than 1000 nM at BCR-FMS BaF3 cells.

Regarding `CNc1ncnc2[nH]cc(C(=O)c3ccc(NC4CCC(F)(F)CC4)nc3Cl)c12` [Compound P-4058, [2-chloro-6-[(4,4-difluorocyclohexyl)amino]-3-pyridyl]-[4-(methylamino)-7H-pyrrolo[2,3-d]pyrimidin-5-yl]methanone], the IC50 on BCR-NTRK3 BaF3 cells, on Fms kinase and on BCR-FMS BaF3 cells was less than 100 nM throughout.

In the case of `O=C(c1ccc(NC2CCC(F)(F)CC2)nc1Cl)c1c[nH]c2ncnc(NC3CC3)c12` [Compound P-4059, [2-chloro-6-[(4,4-difluorocyclohexyl)amino]-3-pyridyl]-[4-(cyclopropylamino)-7H-pyrrolo[2,3-d]pyrimidin-5-yl]methanone], the IC50 at BCR-NTRK3 BaF3 cells, at Fms kinase and on BCR-FMS BaF3 cells was less than 100 nM throughout.

As for `CCNc1ncnc2[nH]cc(C(=O)c3ccc(Nc4ccc(C5CC5)nc4)nc3F)c12` [Compound P-4060, [6-[(6-cyclopropyl-3-pyridyl)amino]-2-fluoro-3-pyridyl]-[4-(ethylamino)-7H-pyrrolo[2,3-d]pyrimidin-5-yl]methanone], the IC50 on BCR-NTRK3 BaF3 cells, on Fms kinase and at BCR-FMS BaF3 cells was less than 10 nM each time.

Regarding `O=C(c1ccc(NC2CCC(F)(F)CC2)nc1F)c1c[nH]c2ncnc(NCC(F)(F)F)c12` [Compound P-4061, [6-[(4,4-difluorocyclohexyl)amino]-2-fluoro-3-pyridyl]-[4-(2,2,2-trifluoroethylamino)-7H-pyrrolo[2,3-d]pyrimidin-5-yl]methanone], the IC50 is less than 10 nM at BCR-NTRK3 BaF3 cells, less than 100 nM on Fms kinase and less than 100 nM at BCR-FMS BaF3 cells.

In the case of `O=C(c1ccc(NC2CCC(F)(F)CC2)nc1F)c1c[nH]c2ncnc(NC3CC3)c12` [Compound P-4062, [4-(cyclopropylamino)-7H-pyrrolo[2,3-d]pyrimidin-5-yl]-[6-[(4,4-difluorocyclohexyl)amino]-2-fluoro-3-pyridyl]methanone], the IC50 at BCR-NTRK3 BaF3 cells is less than 10 nM; at Fms kinase it was less than 10 nM; at BCR-FMS BaF3 cells, less than 100 nM.

For the compound `CNc1ncnc2[nH]cc(C(=O)c3ccc(NC4CCC(F)(F)CC4)nc3F)c12` [Compound P-4063, [6-[(4,4-difluorocyclohexyl)amino]-2-fluoro-3-pyridyl]-[4-(methylamino)-7H-pyrrolo[2,3-d]pyrimidin-5-yl]methanone], the IC50 was less than 10 nM at BCR-NTRK3 BaF3 cells, less than 10 nM at Fms kinase and less than 100 nM on BCR-FMS BaF3 cells.

Regarding `CCc1ccc(Nc2ccc(C(=O)c3c[nH]c4ncnc(NCC(C)(C)O)c34)c(F)n2)cn1` [Compound P-4064, [6-[(6-ethyl-3-pyridyl)amino]-2-fluoro-3-pyridyl]-[4-[(2-hydroxy-2-methyl-propyl)amino]-7H-pyrrolo[2,3-d]pyrimidin-5-yl]methanone], the IC50 is less than 10 nM at BCR-NTRK3 BaF3 cells, less than 10 nM on Fms kinase and less than 100 nM at BCR-FMS BaF3 cells.

For the compound `CCc1ccc(Nc2ccc(C(=O)c3c[nH]c4ncnc(N)c34)c(F)n2)cn1` [Compound P-4065, (4-amino-7H-pyrrolo[2,3-d]pyrimidin-5-yl)-[6-[(6-ethyl-3-pyridyl)amino]-2-fluoro-3-pyridyl]methanone], the IC50 at BCR-NTRK3 BaF3 cells is less than 10 nM; at Fms kinase it was less than 10 nM; at BCR-FMS BaF3 cells it was less than 100 nM.
